These results are taken from PMC7796366, “Application of HPLC-DAD for In Vitro Investigation of Acetylcholinesterase Inhibition Activity of Selected Isoquinoline Alkaloids from Sanguinaria canadensis Extracts” (Molecules, 2021).

This assay addresses T1, acetylcholinesterase (Homo sapiens, UniProt P22303).
T1 construct: purchased Sigma-Aldrich (St. Louis, MO, USA)
Briefly: biochemical. The settings on record: for pIC50: concentration of acetylcholinesterase 0.2 U/mL, HPLC-DAD; for inhibition: single alkaloid standard, addition of 125 µL of 1 mg/mL (250 µg/mL final), acetylcholinesterase 10 U/mL. In kind it is biochemical. The method, then: For determination of acetylcholinesterase inhibitory activity, HPLC analysis was performed on the same apparatus as determination of alkaloid contents on Polar RP column with mobile phase A containing methanol and 0.0025 M diethylamine, mobile phase B containing acetate buffer at pH 3.8 and 0.0025 M diethylamine, and mobile phase in gradient elution: 0–15 min, 10% A; 15–30 min, 10–70% A; 30–60 min, 70% A. Flow rate was 1 mL/min.
[…] Samples for determination of acetylcholinesterase inhibitory activity were prepared by addition of 50 µL of acetylthiocholine iodide, 50 µL of 5′-dithiobis-(2-nitrobenzoic acid), […], and phosphate buffer at pH 7.8 to obtain 500 µL of final solution. […] All components were mixed and samples were incubated for 15 min at 37 °C. Samples were filtrated by syringe filter (CHROMAFIL Xtra, PVDF-29/25 0.20 µm) and injected into the HPLC system.

In general, pIC50 refers to the negative decadic logarithm of the IC50, by convention in mol/L. For orientation: inhibition means the drop in the measured response relative to a control, in per cent.

Structures are written as SMILES. pIC50: −log10 of the molar value.

T1 sequence (P22303 32-614, species assumed): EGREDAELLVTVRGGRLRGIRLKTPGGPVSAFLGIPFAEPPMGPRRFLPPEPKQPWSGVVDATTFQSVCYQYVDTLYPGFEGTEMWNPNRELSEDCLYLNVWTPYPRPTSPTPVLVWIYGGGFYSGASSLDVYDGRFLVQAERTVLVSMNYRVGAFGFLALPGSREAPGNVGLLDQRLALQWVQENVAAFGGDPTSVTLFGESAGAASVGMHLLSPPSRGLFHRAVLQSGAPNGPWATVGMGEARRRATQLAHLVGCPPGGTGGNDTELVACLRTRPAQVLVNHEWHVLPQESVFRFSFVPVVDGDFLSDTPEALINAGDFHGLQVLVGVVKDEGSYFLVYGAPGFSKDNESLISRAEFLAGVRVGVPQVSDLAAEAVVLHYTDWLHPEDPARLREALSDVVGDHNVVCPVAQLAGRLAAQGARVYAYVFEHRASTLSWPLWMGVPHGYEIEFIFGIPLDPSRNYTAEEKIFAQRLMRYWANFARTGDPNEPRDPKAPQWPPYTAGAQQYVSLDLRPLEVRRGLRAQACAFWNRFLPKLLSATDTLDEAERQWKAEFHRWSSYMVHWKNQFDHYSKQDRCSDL

Consider `C[n+]1cc2c3c(ccc2c2ccc4cc5c(cc4c21)OCO5)OCO3` [Sanguinarine], for which the negative-log IC50 (pIC50) was 5.25.
For `CN1CCc2cc3c(cc2C(=O)Cc2ccc4c(c2C1)OCO4)OCO3` [Protopine], the pIC50 is 4.18 and the inhibition was roughly 22%.
`COc1ccc2cc3[n+](cc2c1OC)CCc1cc2c(cc1-3)OCO2` [Berberine]: the “% inhibition of acetylcholinesterase activity” value is “highest activity”.
`COc1ccc2c(c[n+](C)c3c4cc5c(cc4ccc23)OCO5)c1OC` [Chelerythrine] had a pIC50 of 6.14 and an inhibition of 100%.
With `CN1Cc2c(ccc3c2OCO3)[C@@H]2[C@H]1c1cc3c(cc1C[C@@H]2O)OCO3` [Chelidonine], the pIC50 is 4.57 and the inhibition is 100%.
